Columns and labels:
Format in all cases: cell-based
[1] = test system: normal ovary epithelial cells T80; experiment: MTT cell viability assay, T80; settings: T80, 24 h, concentration equivalent to Dox, read-out: IC50 (relative cellular viability)
Method: (§1) Cells were treated with various concentrations of GQDs-FA-Dox (0, 0.25, 0.5, 1, 2, and 4 μM equivalent to Dox) for 24 h and 48 h, respectively. Cell viability was determined by the MTT assay. In brief, the cells were treated with GQDs-FA-Dox conjugates, 10 μL MTT (5 mg/ml) was added into each well and incubated for 4 h, culture medium was removed and 100 μL DMSO was added to dissolve formazan crystals. Absorbance was read at 560 nm for formazan and 670 nm for background by Synergy H4 hybrid multi-mode microplate reader (BioTek).
(§2) To determine the effective dosage of GQDs-FA-Dox on ovarian cancer cells and normal cells, a dose-course MTT assay was done on Ovcar3 cells. The cells were treated with a series of concentration of DOX, GQDs-FA-Dox, and GQDs-Dox for 0.01 to 4 μM (equivalent to Dox concentration) for 24 h.

ovarian cells Ovcar3 = experiment: MTT cell viability assay, Ovcar3; settings: Homo sapiens, OVCAR-3; Ovcar3, 24 h, concentration equivalent to Dox; read-out: IC50 (relative cellular viability)
Method: as §1, §2

[2] = test system: ovarian cancer cells ovcar3; experiment: Colony formation assay, ovcar3
Method: Colony formation assays were performed with ovarian cancer cells ovcar3 and ovarian surface epithelial cells T80 to examine the impact of DOX, […]-Dox, or GQDs-Dox on the cell growth inhibition.

| IC50 (ovarian cells Ovcar3) [nM] | SMILES | IC50 [1] [nM] | colony growth ([2]; ovcar3) | effect of folic acid on ovcar3 cells in response of GQDs-FA-DOX ([2]; ovcar3, colony formation, co-treatment with GQDs-FA-DOX) |
| --- | --- | --- | --- | --- |
| 930 | COc1cccc2c1C(=O)c1c(O)c3c(c(O)c1C2=O)C[C@@](O)(C(=O)CO)C[C@@H]3O[C@H]1C[C@H](N)[C@H](O)[C@H](C)O1 [DOX, Doxorubicin] | 860 | strongly inhibited | – |
| – | Nc1nc2ncc(CNc3ccc(C(=O)N[C@@H](CCC(=O)O)C(=O)O)cc3)nc2c(=O)[nH]1 [Folic acid, folic acid] | – | – | protective effect |

From patent US10493170B1, “Targeted graphene quantum dot-based theranostics” (University of South Florida, priority 2014, dated 2019)
